Measured values taken from ChEMBL document CHEMBL1909046, “DrugMatrix in vitro pharmacology data”.

Assays:
[1] = DRUGMATRIX: ATPase, Na+/K+ enzyme inhibition (substrate: ATP); assay type: tissue-based, Sus scrofa, Heart; details: Not Active = under 50% inhibition at 10 µM
[2] = DRUGMATRIX: Atrial Natriuretic Factor (ANF) radioligand binding (ligand: [125I] ANF (rat)); assay type: cell membranes, Cavia porcellus, Dunkin-Hartley, Adrenal gland, Membrane; details: Not Active = under 50% inhibition at 10 µM
Endothelin-1 receptor = target: T1, Endothelin-1 receptor (Homo sapiens, UniProt P25101); assay type: cell membranes, Membrane; details: cho-k1; further: in other assays of this panel Not Active means under 50% inhibition at 10 µM
T1 sequence (P25101 whole entry): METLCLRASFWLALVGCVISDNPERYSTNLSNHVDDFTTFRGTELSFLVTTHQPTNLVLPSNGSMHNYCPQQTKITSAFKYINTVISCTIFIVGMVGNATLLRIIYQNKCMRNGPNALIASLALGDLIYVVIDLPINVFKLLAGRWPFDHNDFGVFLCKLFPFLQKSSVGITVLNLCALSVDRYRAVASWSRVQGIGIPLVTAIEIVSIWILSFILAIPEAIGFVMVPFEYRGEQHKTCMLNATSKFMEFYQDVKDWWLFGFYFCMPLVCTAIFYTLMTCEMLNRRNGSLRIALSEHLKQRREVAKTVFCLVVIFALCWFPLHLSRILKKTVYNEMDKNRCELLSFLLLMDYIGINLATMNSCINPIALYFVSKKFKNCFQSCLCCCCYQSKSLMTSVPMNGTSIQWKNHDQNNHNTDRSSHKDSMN

Melanocortin receptor 5 = Melanocortin receptor 5 (Homo sapiens, UniProt P33032); assay type: cell membranes, HEK293, Membrane; details: hek293; further: in other assays of this panel Not Active means under 50% inhibition at 10 µM
Glycine receptor = Glycine receptor (Rattus norvegicus, UniProt P22771+P24524+P07727+P20781); assay type: cell membranes, Wistar, Spinal cord, Membrane; further: in other assays of this panel Not Active means under 50% inhibition at 10 µM
[3] = target: Delta-type opioid receptor (Homo sapiens, UniProt P41143); assay type: cell membranes, Membrane; details: hek293; further: in other assays of this panel Not Active means under 50% inhibition at 10 µM
Chain of Delta-type opioid receptor (P41143 whole entry): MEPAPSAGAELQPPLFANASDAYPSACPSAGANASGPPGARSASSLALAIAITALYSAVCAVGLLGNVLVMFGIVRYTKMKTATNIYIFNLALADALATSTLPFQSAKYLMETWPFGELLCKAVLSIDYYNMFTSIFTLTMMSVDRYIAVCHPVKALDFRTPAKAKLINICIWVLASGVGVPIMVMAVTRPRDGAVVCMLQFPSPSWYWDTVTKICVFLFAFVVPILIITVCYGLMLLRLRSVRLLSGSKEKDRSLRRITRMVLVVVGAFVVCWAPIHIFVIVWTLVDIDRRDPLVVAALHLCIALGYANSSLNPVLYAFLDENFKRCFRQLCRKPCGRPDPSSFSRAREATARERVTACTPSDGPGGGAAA

Chain of Melanocortin receptor 5 (P33032 whole entry): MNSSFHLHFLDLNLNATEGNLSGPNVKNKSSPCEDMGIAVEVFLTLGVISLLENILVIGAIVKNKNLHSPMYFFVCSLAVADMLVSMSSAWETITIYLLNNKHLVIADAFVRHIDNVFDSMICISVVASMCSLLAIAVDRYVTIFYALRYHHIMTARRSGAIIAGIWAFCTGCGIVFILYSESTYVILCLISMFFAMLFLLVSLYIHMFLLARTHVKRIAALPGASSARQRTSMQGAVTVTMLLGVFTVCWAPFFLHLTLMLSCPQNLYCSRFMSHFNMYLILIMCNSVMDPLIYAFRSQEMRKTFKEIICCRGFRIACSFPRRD

C[C@@H](CO)NC(=O)[C@@H]1C=C2c3cccc4[nH]cc(c34)C[C@H]2N(C)C1 [ERGONOVINE]
Not Active: IC50 [1] | Ki [1] | IC50 [2] | Ki [2] | IC50 (Endothelin-1 receptor) | IC50 (Melanocortin receptor 5) | IC50 (Glycine receptor) | IC50 [3]

Nc1ccn([C@@H]2O[C@H](CO)[C@@H](O)C2(F)F)c(=O)n1 [GEMCITABINE]
Not Active: IC50 [1] | Ki [1] | IC50 [2] | Ki [2] | IC50 (Endothelin-1 receptor) | IC50 (Melanocortin receptor 5) | IC50 (Glycine receptor) | IC50 [3]

COc1cc(N)c(Cl)cc1C(=O)NC1CCN(CCCOc2ccc(F)cc2)CC1OC (stereo not drawn) [CISAPRIDE]
Not Active: IC50 [1] | Ki [1] | IC50 [2] | Ki [2] | IC50 (Endothelin-1 receptor) | IC50 (Melanocortin receptor 5) | IC50 (Glycine receptor) | IC50 [3]

CCC1(CCC(C)C)C(=O)NC(=O)NC1=O [AMOBARBITAL]
Not Active: IC50 [1] | Ki [1] | IC50 [2] | Ki [2] | IC50 (Endothelin-1 receptor) | IC50 (Melanocortin receptor 5) | IC50 (Glycine receptor) | IC50 [3]

O=C(O)c1cccnc1Nc1cccc(C(F)(F)F)c1 [NIFLUMIC ACID]
Not Active: IC50 [1] | Ki [1] | IC50 [2] | Ki [2] | IC50 (Endothelin-1 receptor) | IC50 (Melanocortin receptor 5) | IC50 (Glycine receptor) | IC50 [3]

Cn1c(=O)c2[nH]cnc2n(C)c1=O.Cn1c(=O)c2[nH]cnc2n(C)c1=O.NCCN [AMINOPHYLLINE]
Not Active: IC50 [1] | Ki [1] | IC50 [2] | Ki [2] | IC50 (Endothelin-1 receptor) | IC50 (Melanocortin receptor 5) | IC50 (Glycine receptor) | IC50 [3]

GENTAMICIN
Not Active: IC50 [1] | Ki [1] | IC50 [2] | Ki [2] | IC50 (Endothelin-1 receptor) | Ki (Endothelin-1 receptor) | IC50 (Melanocortin receptor 5) | Ki (Melanocortin receptor 5) | IC50 (Glycine receptor) | Ki (Glycine receptor) | IC50 [3] | Ki [3]

CCCNCC(O)COc1ccccc1C(=O)CCc1ccccc1 (stereo not drawn) [PROPAFENONE]
Not Active: IC50 [1] | Ki [1] | IC50 [2] | Ki [2] | IC50 (Endothelin-1 receptor) | IC50 (Melanocortin receptor 5) | IC50 (Glycine receptor) | IC50 [3]

C=CCc1ccc(O)c(OC)c1 [EUGENOL]
Not Active: IC50 [1] | Ki [1] | IC50 [2] | Ki [2] | IC50 (Endothelin-1 receptor) | IC50 (Melanocortin receptor 5) | IC50 (Glycine receptor) | IC50 [3]

COc1ccc2[nH]cc(CCNC(C)=O)c2c1 [MELATONIN]
Not Active: IC50 [1] | Ki [1] | IC50 [2] | Ki [2] | IC50 (Endothelin-1 receptor) | IC50 (Melanocortin receptor 5) | IC50 (Glycine receptor) | IC50 [3]

CC(C)NCC(O)COc1cccc2[nH]ccc12 (stereo not drawn) [PINDOLOL]
Not Active: IC50 [1] | Ki [1] | IC50 [2] | Ki [2] | IC50 (Endothelin-1 receptor) | IC50 (Melanocortin receptor 5) | IC50 (Glycine receptor) | IC50 [3]

N=C(N)NC(=O)Cc1c(Cl)cccc1Cl [GUANFACINE]
Not Active: IC50 [1] | Ki [1] | IC50 [2] | Ki [2] | IC50 (Endothelin-1 receptor) | IC50 (Melanocortin receptor 5) | IC50 (Glycine receptor) | IC50 [3]

O=C(N/N=C/c1ccc([N+](=O)[O-])o1)c1cc([N+](=O)[O-])cc([N+](=O)[O-])c1O [NIFURSOL]
Not Active: IC50 [1] | Ki [1] | IC50 [2] | Ki [2] | IC50 (Endothelin-1 receptor) | IC50 (Melanocortin receptor 5) | IC50 (Glycine receptor) | IC50 [3]

COc1cc2nc(N3CCN(C(=O)c4ccco4)CC3)nc(N)c2cc1OC [PRAZOSIN]
Not Active: IC50 [1] | Ki [1] | IC50 [2] | Ki [2] | IC50 (Endothelin-1 receptor) | IC50 (Melanocortin receptor 5) | IC50 (Glycine receptor) | IC50 [3]

CC(C)NNC(=O)c1ccncc1 [IPRONIAZID]
Not Active: IC50 [1] | Ki [1] | IC50 [2] | Ki [2] | IC50 (Endothelin-1 receptor) | IC50 (Melanocortin receptor 5) | IC50 (Glycine receptor) | IC50 [3]

COc1cc([C@@H]2c3cc4c(cc3[C@@H](O[C@@H]3O[C@@H]5CO[C@@H](C)O[C@H]5[C@H](O)[C@H]3O)[C@H]3COC(=O)[C@H]23)OCO4)cc(OC)c1O [ETOPOSIDE]
Not Active: IC50 [1] | Ki [1] | IC50 [2] | Ki [2] | IC50 (Endothelin-1 receptor) | IC50 (Melanocortin receptor 5) | IC50 (Glycine receptor) | IC50 [3]

CC(C(=O)O)c1cccc(Oc2ccccc2)c1 (stereo not drawn) [FENOPROFEN]
Not Active: IC50 [1] | Ki [1] | IC50 [2] | Ki [2] | IC50 (Endothelin-1 receptor) | IC50 (Melanocortin receptor 5) | IC50 (Glycine receptor) | IC50 [3]

COc1ccc2c3c1O[C@H]1C[C@@H](O)C=C[C@@]31CCN(C)C2 [GALANTAMINE]
Not Active: IC50 [1] | Ki [1] | IC50 [2] | Ki [2] | IC50 (Endothelin-1 receptor) | IC50 (Melanocortin receptor 5) | IC50 (Glycine receptor) | IC50 [3]

O=C(O)CCNC(=O)c1ccccc1 [BETAMIPRON]
Not Active: IC50 [1] | Ki [1] | IC50 [2] | Ki [2] | IC50 (Endothelin-1 receptor) | IC50 (Melanocortin receptor 5) | IC50 (Glycine receptor) | IC50 [3]

C#C[C@]1(OC(C)=O)CC[C@H]2[C@@H]3CCC4=C[C@@H](OC(C)=O)CC[C@@H]4[C@H]3CC[C@@]21C [ETHYNODIOL DIACETATE]
Not Active: IC50 [1] | Ki [1] | IC50 [2] | Ki [2] | IC50 (Endothelin-1 receptor) | IC50 (Melanocortin receptor 5) | IC50 (Glycine receptor) | IC50 [3]

CN1[C@@H]2CC[C@H]1C[C@@H](OC(=O)C(CO)c1ccccc1)C2 (stereo partly drawn) [ATROPINE]
Not Active: IC50 [1] | Ki [1] | IC50 [2] | Ki [2] | IC50 (Endothelin-1 receptor) | IC50 (Melanocortin receptor 5) | IC50 (Glycine receptor) | IC50 [3]

Oc1cccc(O)c1O [PYROGALLOL]
Not Active: IC50 [1] | Ki [1] | IC50 [2] | Ki [2] | IC50 (Endothelin-1 receptor) | IC50 (Melanocortin receptor 5) | IC50 (Glycine receptor) | IC50 [3]

O=C/C=C/c1ccccc1
Not Active: IC50 [1] | Ki [1] | IC50 [2] | Ki [2] | IC50 (Endothelin-1 receptor) | IC50 (Melanocortin receptor 5) | IC50 (Glycine receptor) | IC50 [3]

CN/C(=N\CCSCc1nc[nH]c1C)NC#N [CIMETIDINE]
Not Active: IC50 [1] | Ki [1] | IC50 [2] | Ki [2] | IC50 (Endothelin-1 receptor) | IC50 (Melanocortin receptor 5) | IC50 (Glycine receptor) | IC50 [3]

C[n+]1ccc(-c2cc[n+](C)cc2)cc1.[Cl-].[Cl-] [PARAQUAT DICHLORIDE]
Not Active: IC50 [1] | Ki [1] | IC50 [2] | Ki [2] | IC50 (Endothelin-1 receptor) | IC50 (Melanocortin receptor 5) | IC50 (Glycine receptor) | IC50 [3]

CCCN(CCC)S(=O)(=O)c1ccc(C(=O)O)cc1 [PROBENECID]
Not Active: IC50 [1] | Ki [1] | IC50 [2] | Ki [2] | IC50 (Endothelin-1 receptor) | IC50 (Melanocortin receptor 5) | IC50 (Glycine receptor) | IC50 [3]

C#CC1(O)CC[C@H]2[C@@H]3CCC4=CC(=O)CC[C@@H]4[C@H]3CC[C@@]21CC (stereo partly drawn) [NORGESTREL]
Not Active: IC50 [1] | Ki [1] | IC50 [2] | Ki [2] | IC50 (Endothelin-1 receptor) | IC50 (Melanocortin receptor 5) | IC50 (Glycine receptor) | IC50 [3]

CC[C@H]1CN2CCc3cc(OC)c(OC)cc3[C@@H]2C[C@@H]1C[C@H]1NCCc2cc(OC)c(OC)cc21 [EMETINE]
Not Active: IC50 [1] | Ki [1] | IC50 [2] | Ki [2] | IC50 (Endothelin-1 receptor) | IC50 (Melanocortin receptor 5) | IC50 (Glycine receptor) | IC50 [3]
